Experimental data as given in patent publication US20250163119A1, “COMPOUNDS FOR THE TREATMENT OF DIABETES OR OBESITY” (Eli Lilly and Company, priority 2023, published 2025).
Several values for one entry are separate records, joined by “and”; a condition that tells them apart may be missing. Equal values may be shown once. Read-outs that look alike come from different tables or passages of the source. *1 amine or outer side, *2 acyl side, *3 side chain or, on linkers, in order; H or OH if unused. Where a SMILES comes first, the peptide text is derived from it. Side-chain parts run from the residue outwards. [ ]: non-standard residue; d: D form. The star is where a group is joined. C20 diacid = O=C(O)CCCCCCCCCCCCCCCCCCC(=O)*; γGlu = O=C(O)[C@H](CCC(=O)[*:2])N[*:1]; NMeI = CC[C@H](C)[C@H](NC)C(=O)O; αMeL = CC(C)C[C@](C)(N)C(=O)O; AEEA = NCCOCCOCC(=O)O

Assays:
[1] = tested on: MHC-II presented peptides on human dendritic cells; test: MAPPS assay (MHC-Associated Peptide Proteomics); assay type: cell-based
Method in brief: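 CD14+ monocytes from healthy donor PBMCs were differentiated to immature DCs with IL-4/GM-CSF, exposed to test molecules on day 4 and matured with LPS on day 5. On day 6, MHC-II complexes were immunoprecipitated and eluted peptides identified by mass spectrometry; value is percentage of donors presenting peptides from each region.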

[2] = Pharmacokinetics in Sprague Dawley rats, single subcutaneous or intravenous dose (incl. 10, 30, 100 nmol/kg dose response); assay type: in vivo; conditions: for Tmax: read-out: Tmax
[3] = male, Sprague Dawley, rat, plasma, iv, 201 nmol/kg, single intravenous dose 201 nmol/kg, individual animal
[4] = male, Sprague Dawley, rat, plasma, iv, 201 nmol/kg, single intravenous dose 201 nmol/kg, mean
[5] = male, Sprague Dawley, rat, plasma, sc, 201 nmol/kg, single subcutaneous dose 201 nmol/kg, individual animal
[6] = male, Sprague Dawley, rat, plasma, sc, 201 nmol/kg, single subcutaneous dose 201 nmol/kg, mean
[7] = single intravenous dose 201 nmol/kg, male Sprague Dawley rats, individual animal
[8] = single subcutaneous dose 201 nmol/kg, male Sprague Dawley rats, individual animal

## CC[C@H](C)[C@H](NC)C(=O)N[C@H](C(=O)N[C@H](C(=O)N[C@@H](CO)C(=O)N[C@@H](CC(C)C)C(=O)N[C@@H](CC(=O)O)C(=O)N[C@H](C(=O)N1CCC[C@H]1C(=O)N[C@H](C(=O)NCC(=O)N[C@@](C)(CC(C)C)C(=O)N[C@@H](CC(C)C)C(=O)N[C@@H](CCC(N)=O)C(=O)N[C@@H](CCCCN)C(=O)N[C@@H](CC(C)C)C(=O)N[C@@H](CC(C)C)C(=O)N[C@@H](CCC(=O)O)C(=O)N[C@@H](CCC(N)=O)C(=O)N[C@@H](CCC(=O)O)C(=O)N[C@@H](CCCNC(=N)N)C(=O)N[C@@H](C)C(=O)N[C@@H](CCC(=O)O)C(=O)N[C@@H](CCCCN)C(=O)N[C@@H](C)C(=O)N[C@@H](CCCNC(=N)N)C(=O)N[C@@H](CCC(N)=O)C(=O)N[C@@H](CCC(N)=O)C(=O)N[C@@H](C)C(=O)N[C@@H](CCCCNC(=O)COCCOCCNC(=O)COCCOCCNC(=O)CC[C@H](NC(=O)CCCCCCCCCCCCCCCCCCC(=O)O)C(=O)O)C(=O)N[C@@H](CCC(=O)O)C(=O)N[C@@H](C)C(=O)N[C@@H](C)C(=O)N[C@@H](CCC(=O)O)C(=O)N[C@H](C(=O)N[C@@H](CC(C)C)C(=O)N[C@@H](C)C(=O)N[C@@H](CCC(N)=O)C(=O)N[C@H](C(N)=O)C(C)C)[C@@H](C)CC)[C@@H](C)CC)C(C)C)[C@@H](C)O)C(C)C [SEQ ID NO: 50, (NMeI) VTSLDVPIG αMeL LQKLLEQERAEKARQQAK((2-[2-(2-Amino-ethoxy)-ethoxy]-acetyl)2-γE-CO-(CH2)18-CO2H)EAAEILAQV-NH2] (H-[NMeI]VTSLDVPIG[αMeL]LQKLLEQERAEKARQQAK([AEEA-AEEA-γGlu-C20 diacid])EAAEILAQV-NH2)
[1]; donors displaying MHC-II peptides / donors tested
  MAPPS Assay >10 donors with diverse MHC: 3/10
[1]; human dendritic cells from normal donors
  peptides displayed on MHC-II complexes: at least one peptide cluster on MHC-II complexes in a subset of donors
[1]; in the MAPPs assay and/or the T cell proliferation assay
  immunogenicity compared with SEQ ID NO:54: substantial improvements in immunogenicity over a compound comprising SEQ ID NO:54
[1]; percentage of donors displaying MHC-II peptides
  MAPPS Assay >10 donors with diverse MHC: 30%
[2]; [3]
  clearance: 3.37 mL/h/kg
  half-life: 20.3 h
[2]; [4]
  clearance: 2.93 mL/h/kg
  half-life: 19.2 h
[2]; [5]
  half-life: 19.7 h
  Tmax: 24 h
[2]; male, Sprague Dawley, rat, plasma, sc, 201 nmol/kg, single subcutaneous dose 201 nmol/kg, individual animal, read-out: CL/F (converted)
  CL/F: 7.55 mL/h/kg
[2]; [6]
  half-life: 17.1 h
  Tmax: 24 h
[2]; male, Sprague Dawley, rat, plasma, sc, 201 nmol/kg, single subcutaneous dose 201 nmol/kg, mean, read-out: CL/F (converted)
  CL/F: 7.53 mL/h/kg
[2]; rat, plasma, sc, single subcutaneous dose 201 nmol/kg, male Sprague Dawley rats, mean, read-out: AUC0-inf
  AUC0-inf: 26.8 µM·h
[2]; rat, plasma, sc, single subcutaneous dose 201 nmol/kg, male Sprague Dawley rats, mean, read-out: Cmax
  Cmax: 552 nM
[2]; rat, plasma, single intravenous dose 201 nmol/kg, male Sprague Dawley rats, mean, read-out: AUC0-inf
  AUC0-inf: 69.2 µM·h
[2]; rat, plasma, single intravenous dose 201 nmol/kg, male Sprague Dawley rats, mean, read-out: C0
  C0: 5290 nM
[2]; [7]
  AUC0-inf: 59.6 µM·h and 74.2 µM·h and 73.9 µM·h
  C0: 5560 nM and 4360 nM and 5960 nM
  CL: 2.71 mL/h/kg and 2.72 mL/h/kg
  T1/2: 18.3 h and 19.0 h
[2]; [8]
  AUC0-inf: 26.7 µM·h and 25.1 µM·h and 28.7 µM·h
  CL/F: 8.03 mL/h/kg and 7.01 mL/h/kg
  Cmax: 577 nM and 460 nM and 618 nM
  T1/2: 14.9 h and 16.7 h
